Laboratory results from patent publication EP0450065A1, “ANTIVIRAL AGENT” (priority 1988, dated 1990).
Where two headings read alike, the source gives them in different places.

Columns and labels:
[1] = test system: herpes simplex virus type 1 (HF strain); experiment: Control of CPE (cytopathic effect) manifestation in vero cells; assay type: cell-based; conditions: 20 μg/ml, HSV-1 (HF strain), Example 5
Protocol: (§1) In vitro antiviral activity of Compound A against herpes simplex virus type 1 (HF strain) Compound A was tested for antiviral effect by the following two methods.
(§2) Vero cells cultured and grown in a monolayer on microplates to test for cytopathic effect due to viral infection, with solutions of Compound A diluted to varying ratios and solutions of virus diluted to varying ratios added severally thereto in a volume of 0.1 ml, were cultured under the conditions of 5% CO₂ and 37°C and were examined for CPE manifestation under a microscope. The observation was continued for five to six days.
(§3) The degree of CPE brought about by viral infection was rated on the five-point scale, wherein 3 stands for CPE observed on not less than 75% of cultured cells, 2 for CPE observed on 50% of cultured cells, 1 for CPE observed on 25% of cultured cells, 0.5 for occurrence of one to two extremely minute DPE spots, and 0 for perfect absence of recognizable CPE. The CPE scores obtained at the four holes in each microplate were averaged and the difference of the average from the average obtained in the control (omitting the treatment with a chemical) was reported as ΔCPE.
(§4) In vitro antiviral effect of Compound A against herpes simplex virus type 1 (HF strain) The test was carried out by following the procedure of Example 3.

[2] = test system: herpes simplex virus type 1 (HF strain); experiment: 50% Tissue culture infective dose (TCID50), Read-Munch method, negative logarithm of virus dilution; assay type: cell-based
Protocol: as §1
(§5) The amount of virus infecting 50% of tissues (TCID₅₀) was determined by the Read-Munch method and expressed in negative logarithm of the maximum radio of dilution of virus. The difference of the amount thus determined from the amount found in the control (omitting the treatment with a chemical) was reported as ΔTCID₅₀. A sample whose ΔCPE's found on the last day of observation and on each of the days spent for the observation exceeded 1.0 was evaluated as effective.
as §4

[3] = test system: herpes simplex virus type 2 (169 strain); experiment: Control of CPE (cytopathic effect) manifestation in vero cells; assay type: cell-based; conditions: 20 μg/ml, HSV-2 (169), Example 6
Protocol: as §2, §3
(§6) In vitro antiviral activity of Compound A against herpes simplex virus type 2 (169 strain) The test was carried out by following the procedure of Example 3.

[4] = test system: herpes simplex virus type 2 (169 strain); experiment: 50% Tissue culture infective dose (TCID50), Read-Munch method, negative logarithm of virus dilution; assay type: cell-based; set-up: key to Cytopathic effect [CPE] (5days) △TCID50 / Cytopathic effect [CPE] (6days) △TCID50 / Cytopathic effect [CPE] (3days) △TCID50: difference in -log TCID50 from untreated control; conditions: HSV-2 (169), Example 6
Protocol: as §5, §6

[5] = test system: herpes simplex virus type 1 (KOS strain); experiment: Control of CPE (cytopathic effect) manifestation in vero cells; assay type: cell-based; conditions: HSV-1 (KOS), Example 7; for Cytopathic effect [CPE] (3days) △CPE / Cytopathic effect [CPE] (5days) △CPE: difference from control
Protocol: as §2, §3
(§7) Antiviral activity of Compound A and Compound B against herpes simplex virus type 1 (KOS strain) The test was carried out by following the procedure of Example 3.

[6] = test system: herpes simplex virus type 1 (KOS strain); experiment: 50% Tissue culture infective dose (TCID50), Read-Munch method, negative logarithm of virus dilution; assay type: cell-based; set-up: key to Cytopathic effect [CPE] (5days) TCID50 / Cytopathic effect [CPE] (3days) TCID50: TCID50 as negative log of maximum virus dilution ratio; key to Cytopathic effect [CPE] (5days) △TCID50 / Cytopathic effect [CPE] (3days) △TCID50: difference from control TCID50, in negative log of virus dilution; conditions: for Cytopathic effect [CPE] (3days) TCID50 / Cytopathic effect [CPE] (5days) TCID50 / Cytopathic effect [CPE] (3days) △TCID50 / Cytopathic effect [CPE] (5days) △TCID50: HSV-1 (KOS), Example 7; for Cytopathic effect [CPE] (3days) △TCID50 / Cytopathic effect [CPE] (5days) △TCID50: difference from control
Protocol: as §5, §7

[7] = test system: herpes simplex virus type 1 (KOS strain); experiment: One-step growth of virus, plaque assay with vero cells; assay type: cell-based; conditions: for log reduction at 30 µg/mL: 24 h, read-out: Intracellular virus Control ratio -logT/C
Protocol: Antiviral activity of Compound A and Compound B against one-step growth of herpes simplex virus type 1 (KOS strain) Cells grown in a monolayer, with a sample of a given compound diluted in a varying ratio added, were pretreated for 15 minutes. Then, the pretreated cells were infected with the herpes simplex virus type 1 (KOS strain) at an infecting ratio of 0.25 and left standing for 24 hours. At the end of the standing, the intracellular and extracellular amounts of virus were determined by the plaque assay with vero cells.

vero cells [8] = conditions: african green monkey
Protocol: Compound A and Compound B were severally dissolved in distilled water in a concentration of 5 mg/ml, to prepare master solutions. Each of the master solutions was suitably diluted with an Eagle's MEM culture medium containing 10% fetal bovine serum. A 0.2-ml portion of the resultant dilution product was placed on vero cells cultured in advance on a microplate and grown in a monolayer, cultured further thereon at 37°C for three to five days. Samples taken severally after three days'and five days'culture were placed under a microscope and tested for cytopathogenic effect brought about by a chemical agent.

vero cells [9] = conditions: control ratio on propagation of vero cells, 72hr
Protocol: Samples of the control group contained 0.1 ml of a culture solution (an Eagle's MEM culture medium containing 10% fetal bovine serum).
The test was conducted by using three culture tubes per group, culturing the cells in the tubes at 37°C for three days, and taking count of live cells by the dye-exclusion method.

[10] = 20 μg/ml, HSV-1 (HF strain), Example 5
[11] = 50 μg/ml, extracellular virus, 24 hours
[12] = 100 μg/ml, extracellular virus, 24 hours
[13] = 200 μg/ml, extracellular virus, 24 hours

Compound: Nc1ncnc2c1ncn2[C@@H]1O[C@H](CO)[C@@H](O)[C@@H]1O [Ara A, adenine arabinoside, reference compound]
- Cytopathic effect [CPE] (3days) Average [1]: 2.5
- Cytopathic effect [CPE] (6days) Average [1]: 3.0
- Cytopathic effect [CPE] (3days) ΔCPE ([1]; difference from control): 0.25
- Cytopathic effect [CPE] (6days) ΔCPE ([1]; difference from control): 0
- Cytopathic effect [CPE] (3days) TCID50 [2, 10]: 6.5
- Cytopathic effect [CPE] (6days) TCID50 [2, 10]: 6.5
- Cytopathic effect [CPE] (6days) ΔTCID50 ([2]; 20 μg/ml, HSV-1 (HF strain), Example 5, difference from control): no discernible antiviral effect
- log reduction at 20 µg/mL ([2]; Human alphaherpesvirus 1, 72 h, read-out: Cytopathic effect [CPE] (3days) ΔTCID50): -0.2
- log reduction at 20 µg/mL ([2]; Human alphaherpesvirus 1, 144 h, read-out: Cytopathic effect [CPE] (6days) ΔTCID50): -0.2
- Cytopathic effect [CPE] (3days) Average [3]: 0.5
- Cytopathic effect [CPE] (6days) Average [3]: 3.0
- Cytopathic effect [CPE] (3days) △CPE ([3]; difference from control): 1.0
- Cytopathic effect [CPE] (6days) △CPE ([3]; difference from control): 0
- Cytopathic effect [CPE] (3days) TCID50 ([4]; 20 μg/ml): 7.0
- Cytopathic effect [CPE] (6days) TCID50 ([4]; 20 μg/ml): 7.5
- Cytopathic effect [CPE] (6days) △TCID50 ([4]; 20 μg/ml, difference from control): nil
- log reduction at 20 µg/mL ([4]; Human alphaherpesvirus 2, 72 h, read-out: Cytopathic effect [CPE] (3days) △TCID50, 20 μg/ml, difference from control): -0.3
- log reduction at 20 µg/mL ([4]; Human alphaherpesvirus 2, 144 h, read-out: Cytopathic effect [CPE] (6days) △TCID50, 20 μg/ml, difference from control): -0.8
- Cytopathic effect [CPE] (3days) Average ([5]; 30 μg/ml): 1.0
- Cytopathic effect [CPE] (5days) Average ([5]; 30 μg/ml): 2.0
- Cytopathic effect [CPE] (3days) △CPE ([5]; 30 μg/ml): 1.0
- Cytopathic effect [CPE] (5days) △CPE ([5]; 30 μg/ml): 1.0
- Cytopathic effect [CPE] (3days) TCID50 ([6]; 30 μg/ml): 5.0
- Cytopathic effect [CPE] (5days) TCID50 ([6]; 30 μg/ml): 5.7
- log reduction at 30 µg/mL ([6]; Human alphaherpesvirus 1, 72 h, read-out: Cytopathic effect [CPE] (3days) △TCID50): 0.5
- log reduction at 30 µg/mL ([6]; Human alphaherpesvirus 1, 120 h, read-out: Cytopathic effect [CPE] (5days) △TCID50): 0.3
- Intracellular virus Average ([7]; 30 μg/ml, extracellular virus, 24 hours): 3.93×10^3 /dish
- Intracellular virus Average ([7]; 30 μg/ml, 24 hours): 7.38×10^4 /dish
- log reduction at 30 µg/mL ([7]; Human alphaherpesvirus 1, Vero, 30 μg/ml, extracellular virus, 24 hours): 3.88
- log reduction at 30 µg/mL ([7]; Human alphaherpesvirus 1, Vero, 30 μg/ml, 24 hours): 4.74
- inhibition at 30 µg/mL ([7]; Human alphaherpesvirus 1, Vero, 30 μg/ml, 24 hours, read-out: Intracellular virus Control ratio %): > 99.9%

Compound: K₇PW₁₀Ti₂O₄₀.6H₂O [Compound B]
- Cytopathic effect [CPE] (3days) Average ([5]; 100 μg/ml): 0
- Cytopathic effect [CPE] (5days) Average ([5]; 100 μg/ml): 0
- Cytopathic effect [CPE] (3days) △CPE ([5]; 100 μg/ml): 2.0
- Cytopathic effect [CPE] (5days) △CPE ([5]; 100 μg/ml): 3.0
- Cytopathic effect [CPE] (3days) Average ([5]; 200 μg/ml): 0
- Cytopathic effect [CPE] (5days) Average ([5]; 200 μg/ml): 0
- Cytopathic effect [CPE] (3days) △CPE ([5]; 200 μg/ml): 2.0
- Cytopathic effect [CPE] (5days) △CPE ([5]; 200 μg/ml): 3.0
- Cytopathic effect [CPE] (3days) TCID50 ([6]; 100 μg/ml): 3.5
- Cytopathic effect [CPE] (5days) TCID50 ([6]; 100 μg/ml): 3.5
- Cytopathic effect [CPE] (3days) △TCID50 ([6]; 100 μg/ml): 2.0
- Cytopathic effect [CPE] (5days) △TCID50 ([6]; 100 μg/ml): 2.5
- Cytopathic effect [CPE] (3days) TCID50 ([6]; 200 μg/ml): 3.5
- Cytopathic effect [CPE] (5days) TCID50 ([6]; 200 μg/ml): 3.5
- Cytopathic effect [CPE] (3days) △TCID50 ([6]; 200 μg/ml): 2.0
- Cytopathic effect [CPE] (5days) △TCID50 ([6]; 200 μg/ml): 2.5
- Intracellular virus Average [7, 11]: 5.83×10^5 /dish
- Intracellular virus Control ratio % [7, 11]: 98.1%
- Intracellular virus Control ratio -logT/C [7, 11]: 1.711
- Intracellular virus Average ([7]; 50 μg/ml, 24 hours): 6.00×10^5 /dish
- Intracellular virus Control ratio % ([7]; 50 μg/ml, 24 hours): 99.8%
- Intracellular virus Control ratio -logT/C ([7]; 50 μg/ml, 24 hours): 2.831
- Intracellular virus Average [7, 12]: 2.10×10^5 /dish
- Intracellular virus Control ratio % [7, 12]: 99.3%
- Intracellular virus Control ratio -logT/C [7, 12]: 2.155
- Intracellular virus Average ([7]; 100 μg/ml, 24 hours): 1.12×10^5 /dish
- Intracellular virus Control ratio -logT/C ([7]; 100 μg/ml, 24 hours): 3.560
- Intracellular virus Control ratio % ([7]; 100 μg/ml, 24 hours, 1440 min): >99.9%
- Intracellular virus Average [7, 13]: 4.95×10^4 /dish
- Intracellular virus Control ratio % [7, 13]: 99.8%
- Intracellular virus Control ratio -logT/C [7, 13]: 2.783
- Intracellular virus Average ([7]; 200 μg/ml, 24 hours): 1.07×10^3 /dish
- Intracellular virus Control ratio -logT/C ([7]; 200 μg/ml, 24 hours): 5.580
- Intracellular virus Control ratio % ([7]; 200 μg/ml, 24 hours, 1440 min): >99.9%
- control of the intracellular and extracellular viruses in the one-step growth ([7]; concentration not given, 1440 min): not less than 99.9%
- maximum nontoxic doses (MNTD) (vero cells [8]): > 200 µg/mL
- Cellular toxity (3 days) Maximum nontoxic does (vero cells [8]; 72 h): >200 µg/mL
- Cellular toxity (5 days) Maximum nontoxic does (vero cells [8]; 120 h): >200 µg/mL
- Ratio (%) (vero cells [9]; 100 μg/ml): absolutely no effect
- Ratio (%) (vero cells [9]; 200 μg/ml): absolutely no effect
